Measurements taken from patent US7994209B2, “3-phenoxymethylpyrrolidine compounds” (Theravance, Inc., priority 2009, dated 2011).

Assays:
hSERT [1] = target: T1, hSERT (Homo sapiens, UniProt P31645); experiment: hSERT neurotransmitter uptake assay (3H-5-HT), Assay 2; assay type: cell-based; design: expressed in transfected cells; host or cells: HEK-293; settings: serotonin reuptake inhibition, 3H-5-HT uptake, HEK-293 hSERT cells (values without asterisk); read-out: SERT pIC50 (converted)
hNET [2] = target: T2, hNET (Homo sapiens, UniProt P23975); experiment: hNET membrane radioligand binding assay (3H-nisoxetine), Assay 1
T2 sequence (P23975 whole entry): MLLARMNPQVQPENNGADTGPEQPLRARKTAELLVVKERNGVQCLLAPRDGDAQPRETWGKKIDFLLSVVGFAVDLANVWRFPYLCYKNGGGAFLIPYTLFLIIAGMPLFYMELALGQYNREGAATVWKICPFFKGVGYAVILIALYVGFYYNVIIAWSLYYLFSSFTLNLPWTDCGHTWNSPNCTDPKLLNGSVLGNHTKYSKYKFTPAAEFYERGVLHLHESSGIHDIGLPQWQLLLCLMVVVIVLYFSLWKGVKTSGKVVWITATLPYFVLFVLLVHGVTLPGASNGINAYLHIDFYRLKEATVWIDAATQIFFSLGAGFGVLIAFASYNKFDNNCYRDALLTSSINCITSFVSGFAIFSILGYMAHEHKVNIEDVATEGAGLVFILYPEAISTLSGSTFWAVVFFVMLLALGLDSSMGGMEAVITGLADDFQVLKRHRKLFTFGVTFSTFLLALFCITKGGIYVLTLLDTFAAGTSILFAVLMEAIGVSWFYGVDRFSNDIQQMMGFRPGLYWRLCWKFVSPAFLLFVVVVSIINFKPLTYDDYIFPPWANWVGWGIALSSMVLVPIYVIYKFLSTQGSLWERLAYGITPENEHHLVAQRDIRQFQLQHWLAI
Procedure: (§1) Membrane radioligand binding assays were used to measure inhibition of labeled ligand (^3H-citalopram or ^3H-nisoxetine or ^3H-WIN35428) binding to membranes prepared from cells expressing the respective human recombinant transporter (hSERT or hNET or hDAT) in order to determine the pKi values of test compounds at the transporters.
(§2) Recombinant human embryonic kidney (HEK-293) derived cell lines stably transfected with hSERT or hNET, respectively, were grown in DMEM medium supplemented with 10% dialyzed FBS (for hSERT) or FBS (for hNET), 100 μg/mL penicillin, 100 μg/mL streptomycin, 2 mM L-glutamine and 250 μg/mL of the aminoglycoside antibiotic G418, in a 5% CO2 humidified incubator at 37° C. When cultures reached 80% confluence, the cells were washed thoroughly in PBS (without Ca^2+ and Mg^2+) and lifted with 5 mM EDTA in PBS. Cells were pelleted by centrifugation, resuspended in lysis buffer (10 mM Tris-HCl, pH7.5 containing 1 mM EDTA), homogenized, pelleted by centrifugation, then resuspended in 50 mM Tris-HCl, pH 7.5 and 10% sucrose at 4° C. Protein concentration of the membrane suspension was determined using a Bio-Rad Bradford Protein Assay kit. Membranes were snap frozen and stored at −80° C.
(§3) Binding assays were performed in a 96-well assay plate in a total volume of 200 μl assay buffer (50 mM Tris-HCl, 120 mM NaCl, 5 mM KCl, pH 7.4) with 0.5, 1, and 3 μg membrane protein, for SERT, NET and DAT, respectively.
(§4) Stock solutions (10 mM in DMSO) of test compound were prepared and serial dilutions made using Dilution Buffer (50 mM Tris-HCl, 120 mM NaCl, 5 mM KCl, pH 7.4, 0.1% BSA, 400 μM ascorbic acid).
(§5) Following a 60 minute incubation at 22° C. (or a period sufficient to reach equilibrium), the membranes were harvested by rapid filtration over a 96-well UniFilter GF/B plate, pretreated with 0.3% polyethyleneimine, and washed 6 times with 300 μl wash buffer (50 mM Tris-HCl, 0.9% NaCl, pH 7.5 at 4° C.). Plates were dried overnight at room temperature, approximately 45 μl of MicroScint™-20 (Perkin Elmer) added and bound radioactivity quantitated via liquid scintillation spectroscopy. Inhibition curves and saturation isotherms were analyzed using GraphPad Prism Software package (GraphPad Software, Inc., San Diego, Calif.). IC50 values were generated from concentration response curves using the Sigmoidal Dose Response (variable slope) algorithm in Prism GraphPad.

hSERT [3] = target: T1, hSERT; experiment: hSERT membrane radioligand binding assay (3H-citalopram), Assay 1; settings: SERT pKi, hSERT HEK-293 membranes, 1.0 nM 3H-citalopram; values given as lower bounds
Procedure: as §1, §2, §3, §4, §5

hNET [4] = target: T2, hNET; experiment: hNET neurotransmitter uptake assay (3H-NE), Assay 2; assay type: cell-based; design: expressed in transfected cells; host or cells: HEK-293; settings: norepinephrine reuptake inhibition, 3H-NE uptake, HEK-293 hNET cells (values without asterisk); read-out: NET pIC50 (converted)

T1 sequence (P31645 whole entry): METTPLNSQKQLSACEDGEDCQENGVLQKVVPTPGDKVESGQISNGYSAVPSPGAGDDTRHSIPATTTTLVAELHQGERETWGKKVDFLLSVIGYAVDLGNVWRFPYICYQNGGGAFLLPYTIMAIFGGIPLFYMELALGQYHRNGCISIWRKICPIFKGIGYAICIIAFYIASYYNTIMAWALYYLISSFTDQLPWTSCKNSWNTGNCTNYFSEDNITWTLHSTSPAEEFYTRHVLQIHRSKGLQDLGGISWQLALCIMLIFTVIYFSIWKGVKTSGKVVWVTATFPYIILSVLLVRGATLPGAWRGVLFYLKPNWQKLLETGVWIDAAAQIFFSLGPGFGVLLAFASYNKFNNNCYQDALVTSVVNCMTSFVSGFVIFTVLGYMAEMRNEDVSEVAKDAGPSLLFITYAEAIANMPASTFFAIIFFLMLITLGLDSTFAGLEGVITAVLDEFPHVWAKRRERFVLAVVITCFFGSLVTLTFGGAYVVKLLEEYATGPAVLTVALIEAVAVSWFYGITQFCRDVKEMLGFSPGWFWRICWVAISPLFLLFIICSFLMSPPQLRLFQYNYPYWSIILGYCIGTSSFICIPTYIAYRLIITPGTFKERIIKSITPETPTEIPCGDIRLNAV

Row | Compound | IC50 (hSERT [1]) [nM] | Ki (hNET [2]) [nM] | Ki (hSERT [3]) [nM] | IC50 (hNET [4]) [nM]
1 | Cc1cc(Cl)ccc1O[C@@H](C1CC1)[C@H]1CCNC1 [Example 16-29, (S)-3-[(S)-(4-Chloro-2-methylphenoxy)cyclopropylmethyl]pyrrolidine] | ≤ 10 | ≤ 10 | ≤ 10 | ≤ 10
2 | CCc1cc(F)ccc1O[C@H](C1CC1)[C@H]1CCNC1 [Example 16-33, (S)-3-[(R)cyclopropyl-(2-ethyl-4-fluorophenoxy)-methyl]pyrrolidine] | ≤ 100 | ≤ 10 | ≤ 100 | ≤ 10
3 | CCc1cc(F)ccc1O[C@@H](C1CC1)[C@H]1CCNC1 [Example 16-34, (S)-3-[(S)cyclopropyl-(2-ethyl-4-fluorophenoxy)-methyl]pyrrolidine] | ≤ 10 | ≤ 10 | ≤ 10 | ≤ 10
4 | COc1cc(Cl)ccc1O[C@@H](C1CC1)[C@H]1CCNC1 [Example 16-37, (S)-3-[(S)-(4-Chloro-2-methoxyphenoxy)cyclopropylmethyl]pyrrolidine] | ≤ 10 | ≤ 10 | ≤ 10 | ≤ 10
5 | COc1cc(Cl)ccc1O[C@H](C1CC1)[C@H]1CCNC1 [Example 16-38, (S)-3-[(R)-(4-Chloro-2-methoxyphenoxy)cyclopropylmethyl]pyrrolidine] | ≤ 10 | ≤ 10 | ≤ 10 | ≤ 100
6 | Clc1cccc(Cl)c1O[C@@H](C1CC1)[C@H]1CCNC1 [Example 16-44, (S)-3-[(S)cyclopropyl-(2,6-dichlorophenoxy)-methyl]pyrrolidine] | ≤ 316 | ≤ 10 | ≤ 100 | ≤ 10
7 | Cc1ccc(O[C@H](C2CC2)[C@H]2CCNC2)c(F)c1F [Example 16-51, (S)-3-[(R)cyclopropyl-(2,3-difluoro-4-methylphenoxy)methyl]pyrrolidine] | ≤ 10 | ≤ 10 | ≤ 10 | ≤ 10
8 | COc1c(O[C@@H](C2CC2)[C@H]2CCNC2)ccc(Cl)c1Cl [Example 16-55, (S)-3-[(S)cyclopropyl-(3,4-dichloro-2-methoxyphenoxy)methyl]pyrrolidine] | ≤ 10 | ≤ 10 | ≤ 10 | ≤ 10
9 | Clc1ccc(Cl)c(O[C@@H](C2CC2)[C@H]2CCNC2)c1Cl [Example 16-58, (S)-3-[(S)cyclopropyl-(2,3,6-trichlorophenoxy)methyl]pyrrolidine] | ≤ 100 | ≤ 10 | ≤ 10 | ≤ 10

Second part, the compound after the results:

Row | IC50 (hSERT [1]) [nM] | Ki (hNET [2]) [nM] | Ki (hSERT [3]) [nM] | IC50 (hNET [4]) [nM] | Compound
10 | ≤ 100 | ≤ 10 | ≤ 10 | ≤ 10 | Fc1ccc(F)c(O[C@@H](C2CC2)[C@H]2CCNC2)c1Cl [Example 16-61, (S)-3-[(S)-(2-Chloro-3,6-difluorophenoxy)cyclopropylmethyl]pyrrolidine]
11 | ≤ 10 | ≤ 10 | ≤ 10 | ≤ 10 | COc1ccc(F)c(O[C@H](C2CC2)[C@H]2CCNC2)c1Cl [Example 16-65, (S)-3-[(R)-(2-Chloro-6-fluoro-3-methoxyphenoxy)cyclopropylmethyl]pyrrolidine]
12 | ≤ 10 | ≤ 10 | ≤ 10 | ≤ 10 | Fc1cc(Cl)cc(Cl)c1O[C@H](C1CC1)[C@H]1CCNC1 [Example 16-76, (S)-3-[(R)cyclopropyl-(2,4-dichloro-6-fluorophenoxy)methyl]pyrrolidine]
13 | ≤ 10 | ≤ 10 | ≤ 10 | ≤ 100 | Cc1cc(Cl)cc(Cl)c1O[C@@H](C1CC1)[C@H]1CCNC1 [Example 16-77, (S)-3-[(S)cyclopropyl-(2,4-dichloro-6-methylphenoxy)methyl]pyrrolidine]
14 | ≤ 10 | ≤ 10 | ≤ 10 | ≤ 10 | Fc1cc(Cl)cc(F)c1O[C@@H](C1CC1)[C@H]1CCNC1 [Example 16-79, (S)-3-[(S)-(4-Chloro-2,6-difluorophenoxy)cyclopropylmethyl]pyrrolidine]
